Values quoted from earlier work as cited in patent US12708115B2, “Inground and above ground termite trailing and recruitment products and processes” (Florida Insect Control Group LLC, priority 2023, dated 2026).

Test system: subterranean termites

## OCCOc1ccccc1 [2-phenoxyethanol]
field, untreated stations 0 of 20
  soil-treated detection stations hit by termites: 5 of 20
Soil treatment, Prescott thesis
  feeding on cellulose material surrounded by the treatment: feed more
